Results as given in paper PMC2680961, “Homologous desensitization of signalling by the alpha (α) isoform of the human thromboxane A2 receptor: A specific role for nitric oxide signalling” (Biochimica et Biophysica Acta, 2007).
Numbering of substitutions follows the chain as printed.

Assays:
TPα^S331,T337,S340A = target: T1, TPα^S331,T337,S340A (Homo sapiens, UniProt P21731, S331A/S340A/T337A); test: [3H]SQ29,548 radioligand binding, Scatchard analysis, HEK.TPα^S331,T337,S340A
T1 construct: expressed in transfected cells
T1 sequence (P21731 1-343 S331A/T337A/S340A): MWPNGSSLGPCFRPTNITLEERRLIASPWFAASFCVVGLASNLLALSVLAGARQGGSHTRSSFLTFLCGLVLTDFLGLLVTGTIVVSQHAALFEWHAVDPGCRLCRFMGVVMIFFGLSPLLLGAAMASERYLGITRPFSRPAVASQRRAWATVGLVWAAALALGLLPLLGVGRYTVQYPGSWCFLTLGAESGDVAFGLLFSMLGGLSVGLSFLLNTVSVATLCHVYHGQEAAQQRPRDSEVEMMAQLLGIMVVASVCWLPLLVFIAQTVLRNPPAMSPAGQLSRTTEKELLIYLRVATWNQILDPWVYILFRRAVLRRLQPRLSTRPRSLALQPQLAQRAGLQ
Procedure: (§1) Cells were harvested by centrifugation at 500×g at 4 °C for 5 min and washed three times with ice-cold Ca^2+/Mg^2+-free phosphate-buffered saline (PBS). TP radioligand binding assays were carried out at 30 °C for 30 min in 100 μl reactions in the presence of 0–40 nM [^3H] […] Protein determinations were carried out using the Bradford assay.
(§2) Radioligand binding and Scatchard analysis data were analysed using GraphPad Prisim V4.0 programme (GraphPad Software Inc., San Diego CA, USA). Statistical analyses were carried out using the unpaired Student's t test using the Statworks Analysis Package. p-values ≤ 0.01 indicated statistically significant differences.

TPα^S239A = target: T2, TPα^S239A (Homo sapiens, UniProt P21731, S239A); test: [3H]SQ29,548 radioligand binding, Scatchard analysis, HEK.TPα^S239A
T2 construct: expressed in transfected cells
T2 sequence (P21731 1-343 S239A): T1 sequence (P21731 1-343 S331A/T337A/S340A) with S239A, A331S, A337T, A340S
Procedure: as §1, §2

Bmax (pmol/mg protein ± S.E.M.) (TPα^S331,T337,S340A): 4.01 ± 0.05 pmol/mg protein | Bmax (pmol/mg protein ± S.E.M.) (TPα^S239A): 4.35 ± 0.04 pmol/mg protein
Structure (SMILES): O=C(O)CCC/C=C\C[C@@H]1[C@H](CNNC(=O)Nc2ccccc2)[C@H]2CC[C@@H]1O2 [SQ29,548]
